From article PMC10689700, “Kaemtakols A–D, highly oxidized pimarane diterpenoids with potent anti-inflammatory activity from Kaempferia takensis” (Natural Products and Bioprospecting, 2023) come the findings set out here.

One data set has as its system NF-κB in HaCaT cells. Put plainly: Inhibition of cytokine-induced NF-κB nuclear translocation in HaCaT human skin cells (high-content imaging). The data set is classed as cell-based. The conditions noted are these: cytokine cocktail TNF-α, IL-1β, IL-6, read-out: EC50, HaCaT cell (NF-κB production by cytokine induced inflammation). Here is the method: Assessment of inhibitory effects on NF-κB nuclear translocation in human skin HaCaT cells
The assay followed the methods described previously with some modifications. Human skin cells (HaCaT cells) were seeded at 5 × 10^4 cells/well in a 96-well black flat-bottom plate, using DMEM (Dulbecco’s Modified Eagle Medium) high glucose supplemented with 10% FBS and 1% penicillin–streptomycin. The plates were then incubated at 37 °C for 24 h under 5% CO2 atmosphere. Following the initial incubation, a range of concentrations (100, 50, 25, 12.5, 6.25, 3.125 μM) of kaemtakols were introduced to the cells, and a subsequent 1-h incubation at 37 °C with 5% CO2 was carried out. Afterward, a cytokine cocktail comprising TNF-α (10 ng/mL), IL-1β (10 ng/mL), and IL-6 (10 ng/mL), along with the same concentration range of kaemtakols, was introduced to the culture plates and incubated at 37 °C with 5% CO2 for additional 30 min. Thereafter, the treated cells were fixed with 100% methanol at -20 °C for 10 min. The fixed cells underwent triple washes with DPBS before being exposed to a blocking solution (3% BSA) at room temperature for 60 min. Subsequently, a primary antibody (anti-NF-κB), a Rabbit monoclonal antibody, was introduced into the culture plate at a 1:500 ratio in DPBS and incubated at 4 °C overnight. Afterward, the culture plate was washed with DPBS three times. A secondary antibody (Alexa Fluor 488-conjugated goat anti-rabbit IgG) at a 1:500 ratio in DPBS was added to the culture plate and incubated for 1 h at room temperature in the dark. Simultaneously, Hoechst (at a 1:1,000 ratio in DPBS) was also added to the culture plate. The translocation of NF-κB in cells treated with the cytokine cocktail and kaemtakols was subsequently detected using a high-content imaging system (Operetta). The cell viability was determined by Hoechst DNA staining (Operetta).

Data set [1] can be described thus: Cytotoxicity against RAW 264.7 cells (MTT assay). Format: cell-based, murine. The conditions noted are these: mouse; for viability at 24 h, 10 µM: at 10 μM, read-out: % Cell viability At 10 μM; for viability at 24 h, 100 µM: at 100 μM, read-out: % Cell viability At 100 μM. Here is the method:
(§1) The inhibitory assay followed the methods described previously with some modifications. RAW 264.7 cells were seeded at 3 × 10^4 cells/well in a 96-well flat bottom plate and cultured in DMEM high glucose supplemented with 10% FBS, 1% penicillin–streptomycin, and 1% HEPES. The plates were initially incubated at 37 °C for 24 h under 5% CO2 atmosphere. Thereafter, LPS (0.25 μg/mL) in the absence or presence of different concentrations of kaemtakols (100, 10, 1, 0.1, 0.01, and 0.001 μg/mL) were introduced into the culture plate and then incubated further for 24 h under the same condition. Aminoguanidine hydrochloride (iNOS inhibitor) was also added as a positive control. The nitrite accumulation in the media was determined by the Griess reaction. The 75 μL of each culture supernatant was mixed with an equivalent amount of Griess reagent and the resulting mixture was incubated at room temperature for additional 10 min. Then, the absorbance at 546 nm was measured using a multimode microplate reader (ENVISION). The cytotoxicity of kaemtakols against RAW 264.7 was determined by a standard MTT assay.

Data set [2] concerns NO production in RAW 264.7 macrophage cells. Description: Inhibition of LPS-induced NO production in RAW 264.7 macrophage cells (Griess reaction). The data set is classed as cell-based, murine. The conditions noted are these: Mus musculus; for pIC50: RAW264.7, LPS-triggered RAW 264.7 macrophage cells, read-out: IC50 of inhibiting nitric oxide production; for pEC50: RAW264.7 cells, LPS 0.25 μg/mL, 24 h, read-out: EC50, Nitric oxide (LPS-induced NO production). Here is the method: as §1, with “Inhibition of NO production in LPS-activated murine macrophages (RAW 264.7 cells) The inhibitory” for “The inhibitory”
(In general: Griess reagent forms a coloured azo dye with nitrite.)

pEC50, pIC50: −log10 of the molar value.

For the molecule `C=CC1(C)C=C2C3(O)OCC4(C(OC(C)=O)CCC(C)(C)C4C3OC(C)=O)C2(O)CC1` (stereo not drawn) [Compound 1, 7α,9α-dihydroxy-1α,6β-diacetoxy-7β,20-epoxyisopimara-8(14),15-diene], the pEC50 with NF-κB in HaCaT cells is less than 4.00. Moreover, in data set [1], the viability at 24 h, 10 µM came out at 95.7% and the viability at 24 h, 100 µM was found to be 68.5%. Besides, in data set [2], the pIC50 was 3.98 and the negative-log EC50 (pEC50) was 3.98.

In the case of `C=C[C@]1(C)C=C2[C@](O)(CC1)[C@]13CO[C@@]2(O)[C@@H](OC(C)=O)[C@H]1C(C)(C)CC[C@@H]3O` [Compound 2, 1α,7α,9α-trihydroxy-6β-acetoxy-7β,20-epoxyisopimara-8(14),15-diene], the pEC50 in the data set on NF-κB in HaCaT cells is less than 4.00. Also, in data set [1], the viability at 24 h, 10 µM is 83% and the viability at 24 h, 100 µM was found to be 20.8%. Moreover, in data set [2], the pIC50 was 6.16 and the pEC50 is 6.16.

As for `C=C[C@]1(C)C=C2[C@@H](OC(C)=O)[C@@]3(O)OC[C@]4([C@@H]3C(C)(C)CC[C@@H]4O)[C@@]2(O)CC1` [Compound 3, 1α,6α,9α-trihydroxy-7β-acetoxy-6β,20-epoxyisopimara-8(14),15-diene], the pEC50 is less than 4.00 with NF-κB in HaCaT cells and 4.52 in data set [2]. Besides, the viability at 24 h, 10 µM in data set [1] is 92.5%. In addition, in data set [1], the viability at 24 h, 100 µM is 97.2%.

Consider `CC(=O)OC1CCC(C)(C)C(C=O)C12COC(=O)C1=C2C2CC3C1C3(C)C2` (stereo not drawn) [Compound 4, 1α-acetoxy-13β-methyl-6,7-seco-7,20-olide-8,9-tricyclo[3.2.1.0^2,7]octane-isopimara-8-en-6-al], for which the pEC50 in the data set with NF-κB in HaCaT cells is less than 4.00. For the same molecule, in data set [1], the viability at 24 h, 10 µM was 89.7% and the viability at 24 h, 100 µM came out at 1.55%. The negative-log EC50 (pEC50) in data set [2] was 4.73.

Usually pEC50 stands for the negative decadic logarithm of the EC50, by convention in mol/L. The viability is the share of living cells, or the viability signal relative to a control. As usually defined, the pIC50 is the negative decadic logarithm of the IC50, by convention in mol/L.
